Laboratory results published in patent US8445240B2, “Termite enzymes and uses thereof for in vitro conversion of lignin-containing materials to fermentable products” (University of Florida Research Foundation, Inc., priority 2009, dated 2013).
Values joined by “and” are separate entries in the source; they are usually repeats but may differ in a detail not shown here. Equal entries are not always repeated. Where two headings read alike, the source gives them in different places.

Experiments:
[1] = target: RfLacA (Reticulitermes flavipes, UniProt D0E8H0); test: RfLacA substrate specificity and kinetic parameters
RfLacA, sequence (D0E8H0 entry or part of it): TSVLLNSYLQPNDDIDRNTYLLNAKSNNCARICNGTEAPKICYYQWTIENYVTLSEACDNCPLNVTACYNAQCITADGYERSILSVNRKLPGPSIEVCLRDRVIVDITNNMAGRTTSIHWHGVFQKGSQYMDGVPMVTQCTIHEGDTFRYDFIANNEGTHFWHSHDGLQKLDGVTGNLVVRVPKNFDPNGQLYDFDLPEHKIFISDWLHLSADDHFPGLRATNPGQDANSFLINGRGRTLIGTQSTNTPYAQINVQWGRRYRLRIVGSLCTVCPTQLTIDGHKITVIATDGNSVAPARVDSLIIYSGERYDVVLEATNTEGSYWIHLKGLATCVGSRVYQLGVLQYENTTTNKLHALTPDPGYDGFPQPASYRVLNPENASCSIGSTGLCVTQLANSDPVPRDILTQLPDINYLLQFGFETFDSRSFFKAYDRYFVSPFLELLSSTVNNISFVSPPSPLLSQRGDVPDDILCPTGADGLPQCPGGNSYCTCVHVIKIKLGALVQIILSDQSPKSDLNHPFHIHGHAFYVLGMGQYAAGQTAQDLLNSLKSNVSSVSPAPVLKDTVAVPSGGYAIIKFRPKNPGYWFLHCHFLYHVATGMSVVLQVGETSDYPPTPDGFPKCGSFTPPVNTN

[2] = target: T1, recombinant RfBGluc-1 β-glucosidase (Reticulitermes flavipes, UniProt D9ILU1); test: Activity of recombinant RfBGluc-1 towards synthetic nitrophenol substrates, kinetic microplate assay; format: biochemical; settings: percent activity rankings based on Vmax; pNP-βD-Glucopyranoside = 100
T1 sequence (D9ILU1 18-495): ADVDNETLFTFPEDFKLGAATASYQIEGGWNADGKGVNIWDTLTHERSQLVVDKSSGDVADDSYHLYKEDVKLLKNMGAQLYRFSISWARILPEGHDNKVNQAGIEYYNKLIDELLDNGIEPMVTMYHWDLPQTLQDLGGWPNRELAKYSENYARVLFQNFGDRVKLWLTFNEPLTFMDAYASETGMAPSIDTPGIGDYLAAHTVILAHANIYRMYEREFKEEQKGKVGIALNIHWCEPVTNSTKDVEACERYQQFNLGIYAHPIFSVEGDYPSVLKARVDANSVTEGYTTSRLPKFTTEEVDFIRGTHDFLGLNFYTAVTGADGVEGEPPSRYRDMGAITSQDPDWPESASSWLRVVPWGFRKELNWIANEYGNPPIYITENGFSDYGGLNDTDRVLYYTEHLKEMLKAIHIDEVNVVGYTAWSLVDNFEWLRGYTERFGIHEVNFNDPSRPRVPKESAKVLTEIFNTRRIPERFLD
Experimental: All initial characterization assays took place in 0.1 M sodium acetate buffer (pH 6) using 2 μL of recombinant enzyme preparation (=1.58 μg protein per assay) in a total reaction volume of 250 μL. Synthetic p-nitrophenol substrates (Table 1) were tested in direct kinetic assays using a microplate reader. Reactions were initiated by adding 248 μL assay buffer to 2 μL protein. Assays were read at 420 nm every 20 sec for 5 min to yield mean velocity data in mOD/min. Specific activity was determined with the p-nitrophenol extinction coefficient of 0.6605 mM^−1 cm^−1. All results were averaged from three independent replicates, each conducted in triplicate.

[3] = RfLacA, 1 mM substrate, hydroquinone = 100

Row | Structure (SMILES) | Specific Activity at 1 mM [S] ([1]; RfLacA, 1 mM substrate) [nmol·min/mg] | Activity (%) [2] [%] | also measured
1 | COc1cccc(OC)c1O [2,6-DMP, 2,6-dimethoxyphenol] | 2.146 |  | Optimal pH ([1]; RfLacA, per substrate): 7.5; Relative Activity (%) [1, 3]: 25.63%
2 | Oc1ccc(O)cc1 [Hydroquinone] |  |  | Optimal pH [1]: 7; Relative Activity (%) [1]: 100.00%; Specific Activity at 1 mM [S] [1]: 8.373 nmol·min/mg; Apparent Vmax ([1]; RfLacA, footnote: maximal specific activities in nmol/min/mg): 0.824 μm min^−1
3 | N[C@@H](Cc1ccc(O)c(O)c1)C(=O)O [L-DOPA] | 0.676 |  | Optimal pH ([1]; RfLacA, per substrate): 6.0 and 7.5; Relative Activity (%) [1, 3]: 8.07%
4 | CC(=O)NCCc1ccc(O)c(O)c1 [NADA] | 0.760 |  | Relative Activity (%) [1]: 9.08%
5 | NCCC(=O)NCCc1ccc(O)c(O)c1 [NBAD] | 0.190 |  | Relative Activity (%) [1, 3]: 2.27%
6 | Oc1ccccc1O [Pyrocatechol] | 2.315 |  | Relative Activity (%) [1]: 27.65%; Optimal pH ([1]; RfLacA, per substrate): 7.5
7 | Oc1cccc(O)c1O [Pyrogallol] | 1.482 |  | Optimal pH ([1]; RfLacA, per substrate): 7; Relative Activity (%) [1, 3]: 17.70%
8 | COc1cc(/C=C/C(=O)O)cc(OC)c1O [Sinapinic Acid] | 3.383 |  | Relative Activity (%) [1]: 40.40%; Optimal pH ([1]; RfLacA, per substrate): 7.5
9 | O=[N+]([O-])c1cccc(O[C@H]2O[C@H](CO)[C@H](O)[C@H](O)[C@H]2O)c1 [mNP-αD-Galactopyranoside] |  | 0 | 
10 | O=[N+]([O-])c1ccccc1O[C@@H]1O[C@H](CO)[C@@H](O)[C@H](O)[C@H]1O [oNP-βD-Glucopyranoside] |  | 18 | 
11 | O=[N+]([O-])c1ccccc1O[C@@H]1O[C@H](CO)[C@@H](O)[C@H](O)[C@@H]1O [oNP-βD-Mannopyranoside] |  | 0 | 
12 | O=[N+]([O-])c1ccccc1O[C@@H]1OC[C@@H](O)[C@H](O)[C@H]1O [oNP-βD-Xylopyranoside] |  | 38 | 
13 | O=[N+]([O-])c1ccc(O[C@H]2O[C@H](CO)[C@H](O)[C@H](O)[C@H]2O)cc1 [pNP-αD-Galactopyranoside] |  | 0 | 
14 | O=[N+]([O-])c1ccc(O[C@@H]2O[C@H](CO)[C@@H](O[C@@H]3O[C@H](CO)[C@@H](O)[C@H](O)[C@H]3O)[C@H](O)[C@H]2O)cc1 [pNP-βD-Cellobioside, p-nitrophenyl-beta-D-cellobioside] |  | 60 | 
15 | O=[N+]([O-])c1ccc(O[C@@H]2O[C@H](CO)[C@@H](O[C@@H]3O[C@H](CO)[C@@H](O[C@@H]4O[C@H](CO)[C@@H](O[C@@H]5O[C@H](CO)[C@@H](O)[C@H](O)[C@H]5O)[C@H](O)[C@H]4O)[C@H](O)[C@H]3O)[C@H](O)[C@H]2O)cc1 [pNP-βD-Cellotetraoside, p-nitrophenyl-beta-D-cellotetraoside] |  | 73 | 
16 | O=[N+]([O-])c1ccc(O[C@@H]2O[C@H](CO)[C@@H](O[C@@H]3O[C@H](CO)[C@@H](O[C@@H]4O[C@H](CO)[C@@H](O)[C@H](O)[C@H]4O)[C@H](O)[C@H]3O)[C@H](O)[C@H]2O)cc1 [pNP-βD-Cellotrioside, p-nitrophenyl-beta-D-cellotrioside] |  | 98 | 
17 | C[C@H]1O[C@@H](Oc2ccc([N+](=O)[O-])cc2)[C@H](O)[C@@H](O)[C@H]1O [pNP-βD-Fucopyranoside] |  | 55 | 
18 | O=[N+]([O-])c1ccc(O[C@@H]2O[C@H](CO)[C@H](O)[C@H](O)[C@H]2O)cc1 [pNP-βD-Galactopyranoside] |  | 0 | 
19 | O=[N+]([O-])c1ccc(O[C@@H]2O[C@H](CO)[C@@H](O)[C@H](O)[C@H]2O)cc1 [pNP-βD-Glucopyranoside, p-nitrophenyl-beta-D-glucopyranoside] |  | 100 | 
20 | O=C(O)[C@H]1O[C@@H](Oc2ccc([N+](=O)[O-])cc2)[C@H](O)[C@@H](O)[C@@H]1O [pNP-βD-Glucuronide] |  | 0 | 
21 | O=[N+]([O-])c1ccc(O[C@@H]2OC[C@@H](O)[C@H](O)[C@H]2O)cc1 [pNP-βD-Xylopyranoside] |  | 0 | 
